Measured values reported in patent US9138424B2, “Methods and compositions for treating cornelia de lange syndrome” (Saint Louis University, priority 2012, dated 2015).

Assays:
cohesin-dependent genes = experiment: Effect of cohesin depletion on expression of other genes in cultured Drosophila cells; assay type: cell-based; conditions: not shown
Text: (§1) PLoS One; 4(7):e6202, herein incorporated by reference.

[1] = test system: Drosophila ct^K mutation in the cut gene (Nipped-B dosage sensitive); experiment: ct^K wing margin-nicking phenotype after feeding larvae; assay type: in vivo; conditions: in food from early larval stages (hatching) until pupariation; vs solvent control; FIG. 2
Text: Controls were feed the solvent that was used to dissolve the compounds (DMSO for Indomethacin, PBS for Acemetacin).
as §1

Nipped-B mRNA = experiment: Nipped-B RNA levels in cultured ML-DmBG3 cells by quantitative RT-PCR; assay type: cell-based, Drosophila; conditions: FIG. 3; for effect on Nipped-B RNA in Nipped-B RNAi cells: ML-DmBG3 cells treated with double-stranded RNA to destabilize Nipped-B RNA; for Nipped-B gene RNA transcripts: ML-DmBG3 cells, treatment for 48 hours, RpL32 as standard
Text: as §1

[2] = test system: Drosophila cells (ML-DmBG3)
[3] = test system: Drosophila N^spl-1 mutation in the Notch receptor gene; experiment: N^spl-1 small rough eye phenotype after treatment; assay type: in vivo; conditions: data not shown
Text: Potential therapeutic compounds may be assayed for their ability to elevate expression of the Nipped-B gene which will enhance the N^spl-1 phenotype, resulting in a decrease in the size of the eye relative to similar untreated subjects.
as §1
The N^spl-1 mutation in the Notch receptor gene causes a small rough eye phenotype. […] (Rollins et a al., (1999) Genetics; 152 (2):577-93).

[4] = test system: yeast scc2 and mis4 mutants; experiment: Growth of temperature-sensitive cohesin/NIPBL-ortholog mutant yeast strains at semipermissive temperature (optical density); assay type: cell-based, Saccharomyces cerevisiae; Schizosaccharomyces pombe; conditions: relative to vehicle control and parental strains, data not shown
Text: as §1
The Inventors began their screening with a library of FDA-approved drugs for their ability to improve the growth of yeast strains with temperature-sensitive mutations in the NIPBL homologs or orthologs. These included the scc2-4 (Nipped-B) mutation, the smc3-42 (cohesin) mutation, mcd1-1 (cohesin) and pds5-1 (Pds5 cohesion maintenance factor) mutation in Saccharomyces cerevisiae, and the mis4-242 (Nipped-B) mutation, and rad21-K1 (cohesin) mutation in Schizosaccharomyces pombe. […] Compounds that improved the growth rate and/or growth maxima of one or more of the mutant strains relative to the parental strains were retested. An improvement in growth rate was defined as a reproducible increase in either the rate of cell division of a mutant yeast strain during the logarithmic growth or the maximal culture density or both as determined by taking the optical density of the culture every 30 min relative to a vehicle control, and the wild-type yeast controls. […] For this reason, Indomethacin and Acemetacin were chosen for further evaluation.

Nipbl mRNA = Nipbl mRNA in C2C12 myogenic cells by RT-PCR; assay type: cell-based, mouse; conditions: Gapdh as standard, FIG. 4A
Text: as §1
(§2) Expression of these and other adipogenic genes is reduced in Nipbl +/− mice (Kawauchi et al. (2009) PLoS Genet.; 5(9):e1000650), which may explain their reduced fat levels, and potentially why individuals with CdLS tend to be lean.

mesenchymal stem cells = conditions: by increasing expression of C/EBPβ and PPARγ2 independently of COX inhibition (Styner et al. 2010); cited from earlier work
Myod1 = Myod1 expression in C2C12 myogenic cells by RT-PCR; assay type: cell-based, mouse; conditions: treatment for 3 days, FIG. 4B
Text: as §1, §2

Pparg = Pparg expression in C2C12 myogenic cells by RT-PCR; assay type: cell-based, mouse; conditions: treatment for 3 days, FIG. 4E
Text: as §1, §2

Cepba = Cepba expression in C2C12 myogenic cells by RT-PCR; assay type: cell-based, mouse; conditions: treatment for 3 days, FIG. 4D
Text: as §1, §2

Myog = Myog expression in C2C12 myogenic cells by RT-PCR; assay type: cell-based, mouse; conditions: treatment for 3 days, FIG. 4C
Text: as §1, §2

| SMILES | effect of cohesin depletion on expression of other genes (cohesin-dependent genes) | occurrence of wing nicking defect (ct^K) [1] | effect on Nipped-B RNA in Nipped-B RNAi cells (Nipped-B mRNA) | Nipped-B gene RNA transcripts (Nipped-B mRNA) | toxicity [2] | N^spl-1 eye phenotype (eye size) [3] | growth rate and/or growth maxima of mutant yeast strains [4] | expression of Nipbl (Nipbl mRNA) | adipogenesis (mesenchymal stem cells) | expression of Myod1 myogenic gene (Myod1) | expression of Pparg adipogenic gene (Pparg) | expression of Cepba adipogenic gene (Cepba) | expression of Myog myogenic gene (Myog) |
| --- | --- | --- | --- | --- | --- | --- | --- | --- | --- | --- | --- | --- | --- |
| COc1ccc2c(c1)c(CC(=O)OCC(=O)O)c(C)n2C(=O)c1ccc(Cl)cc1 [Acemetacin] | reduce the effect of cohesin depletion | reducing the occurrence of this developmental defect | blocked by Nipped-B RNAi | increase Nipped-B gene RNA transcripts | some toxicity | enhances the N^spl-1 phenotype, decreasing the size of the eye | improved the growth of the mutant strains | – | – | – | – | – | – |
| COc1ccc2c(c1)c(CC(=O)O)c(C)n2C(=O)c1ccc(Cl)cc1 [Indomethacin] | reduce the effect of cohesin depletion | reducing the occurrence of this developmental defect | blocked by Nipped-B RNAi | increase Nipped-B gene RNA transcripts | – | – | improved the growth of the mutant strains | increases expression | promotes adipogenesis | reduced expression | increased expression | increased expression | reduced expression |
